Target: T1, GAβ-dependent amyloid fibril formation (Human Aβ1-40 + GM1-containing liposome) (Homo sapiens, UniProt P05067)
T1 construct: Human Aβ1-40 (cat. #4307-v, prepared by Peptide Institute); purchased Peptide Institute 4307-v
Test: Thioflavin T (ThT) assay of GAβ-dependent amyloid fibril formation (Aβ1-40 with GM1-containing liposome)
Assay type: biochemical
Conditions: @25 μM; read-out: ThT Inhibitory activity (% inhibition)
Outline: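 Human Aβ1-40 (75 μM stock) pre-incubated 10 min at room temperature with compound (75 or 15 μM solution), then GM1-containing cholesterol/sphingomyelin liposome added and incubated 37° C, 18 hours. Fibrils quantified by ThT fluorescence (ex 430/em 490 nm, pH 8.5 glycine buffer); inhibition as ratio to compound-free control.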

T1 sequence (P05067 672-711 limits assumed): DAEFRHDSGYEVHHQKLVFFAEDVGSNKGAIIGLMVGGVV

**Q.** For `O=C(N[C@@H](CO)c1nc(-c2ccc(C(F)(F)F)cc2)no1)c1ccc(N2CCCC2)cc1` [Compound 203, N-[(1S)-2-hydroxy-1-{3-[4-(trifluoromethyl)phenyl]-1,2,4-oxadiazol-5-yl}ethyl]-4-(pyrrolidin-1-yl) benzamide], which inhibition at 25 µM is on record?
**A.** Its inhibition at 25 µM is 81%.

**Q.** How did the inhibition at 25 µM turn out when `O=C(N[C@@H](CO)c1nc(-c2ccc(F)cc2)no1)c1ccc(F)cc1` [Compound 172, 4-fluoro-N-[(1S)-1-[3-(4-fluorophenyl)-1,2,4-oxadiazol-5-yl]-2-hydroxyethyl] benzamide] was run?
**A.** Its inhibition at 25 µM is 91%.

Same assay, conditions: inhibition rate against amyloid fibril formation, final concentration of the compound 25 μM

**Q.** For `O=C(N[C@@H](CO)c1nc(-c2ccc(C(F)(F)F)cn2)no1)c1ccc(Cl)cc1` [Compound 205, 4-chloro-N-[(1S)-2-hydroxy-1-{3-[5-(trifluoromethyl)pyridin-2-yl]-1,2,4-oxadiazol-5-yl}ethyl]benzamide], which “Inhibitory activity ABC evaluation” value is on record?
**A.** The value was “B (40% or more and less than 80% were evaluated as B)”.

Same assay, conditions: inhibition rate against amyloid fibril formation, final concentration of the compound 25 μM; read-out: Inhibitory activity ABC evaluation

**Q.** With `O=C(N[C@@H](CO)c1noc(-c2ccc(OC(F)(F)F)cc2)n1)c1ccccc1` [Compound 128, (R)-N-(2-hydroxy-1-(5-(4-(trifluoro-methoxy)phenyl)-1,2,4-oxadiazol-3-yl)ethyl)benzamide] as the compound, how does the inhibition at 25 µM read?
**A.** The inhibition at 25 µM was 40 to 80%.

**Q.** For `O=C(N[C@@H](CO)c1nc(-c2ccc(C(F)(F)F)cn2)no1)c1ccc(F)cc1` [Compound 204, 4-fluoro-N-[(1S)-2-hydroxy-1-{3-[5-(trifluoromethyl)pyridin-2-yl]-1,2,4-oxadiazol-5-yl}ethyl]benzamide], which inhibition at 25 µM is on record?
**A.** The inhibition at 25 µM was 40 to 80%.

**Q.** For `O=C(N[C@@H](CO)c1nc(-c2c[nH]c3ccc(Br)cc23)no1)c1ccc(F)cc1` [Compound 247, N-[(1S)-1-[3-(5-bromo-1H-indol-3-yl)-1,2,4-oxadiazol-5-yl]-2-hydroxyethyl]-4-fluorobenzamide], which inhibition at 25 µM is on record?
**A.** The inhibition at 25 µM was 40 to 80%.

**Q.** For `O=C1CC(c2ncc(-c3ccc(OC(F)(F)F)cc3)[nH]2)CN1c1ccc(Cl)cc1` (centres unmarked) [Compound 124, 1-(4-chlorophenyl)-4-{5-[4-(trifluoromethoxy)phenyl]-1H-imidazol-2-yl}pyrrolidin-2-one], which inhibition at 25 µM is on record?
**A.** The inhibition at 25 µM was less than 40%.

**Q.** With `O=C(N[C@@H](CO)c1nc(-c2cc(Cl)c(Cl)[nH]2)no1)c1ccc(F)cc1` [Compound 249, N-[(1S)-1-[3-(4,5-dichloro-1H-pyrrol-2-yl)-1,2,4-oxadiazol-5-yl]-2-hydroxyethyl]-4-fluorobenzamide] as the compound, how does the inhibition at 25 µM read?
**A.** The inhibition at 25 µM was 40 to 80%.

**Q.** For `CCN(C(=O)CCc1nc(-c2ccc(OC)cc2)no1)c1cccc(Cl)c1` [Compound 7, N-(3-chlorophenyl)-N-ethyl-3-{3-(4-methoxyphenyl)-1,2,4-oxadiazol-5-yl}propanamide], which inhibition at 25 µM is on record?
**A.** Its inhibition at 25 µM is 40 to 80%.

**Q.** `O=C(N[C@@H](CO)c1nc(-c2cn(CCO)c3ccccc23)no1)c1ccc(F)cc1` [Compound 264] was tested. Which inhibition at 25 µM did it give?
**A.** Its inhibition at 25 µM is 40 to 80%.

**Q.** With `O=C(N[C@@H](CO)c1nc(-c2ccc(C(F)(F)F)cc2)no1)c1ccc(N2CCCC2)cc1` [Compound 203, N-[(1S)-2-hydroxy-1-{3-[4-(trifluoromethyl)phenyl]-1,2,4-oxadiazol-5-yl}ethyl]-4-(pyrrolidin-1-yl) benzamide] as the compound, how does the inhibition at 25 µM read?
**A.** The inhibition at 25 µM was greater than 80%.

**Q.** `O=C(N[C@@H](CO)c1nc(-c2ccc(C(F)F)cc2)no1)c1ccc(F)cc1` [Compound 166, N-[(1S)-1-{3-[4-(difluoromethyl)phenyl]-1,2,4-oxadiazol-5-yl}-2-hydroxyethyl]-4-fluorobenzamide] was tested. Which inhibition at 25 µM did it give?
**A.** Its inhibition at 25 µM is 40 to 80%.

**Q.** Which inhibition at 25 µM does the source give for `O=C1CC(CO)(c2nc(-c3ccc(O)c(F)c3)no2)CN1c1ccc(Cl)cc1` (centres unmarked) [Compound 90, 1-(4-chlorophenyl)-4-{3-(3-fluoro-4-hydroxyphenyl)-1,2,4-oxadiazol-5-yl}-4-(hydroxy-methyl)pyrrolidin-2-one] here?
**A.** Its inhibition at 25 µM is 40 to 80%.

**Q.** With `O=C(N[C@@H](CO)c1nc(-c2ccc(C(F)F)cc2)no1)c1ccccc1` [Compound 168, N-[(1S)-1-{3-[4-(difluoromethyl)phenyl]-1,2,4-oxadiazol-5-yl}-2-hydroxyethyl] benzamide] as the compound, how does the inhibition at 25 µM read?
**A.** The inhibition at 25 µM was greater than 80%.

**Q.** With `COCCCNC(=O)c1ccc(-c2noc([C@H](CO)NC(=O)c3ccccc3)n2)cc1` [Compound 148, 4-[5-[(1S)-2-hydroxy-1-(phenylformamido)ethyl]-1,2,4-oxa-diazol-3-yl)-N-(3-methoxypropyl) benzamide] as the compound, how does the inhibition at 25 µM read?
**A.** Its inhibition at 25 µM is 40 to 80%.

**Q.** With `O=C(N[C@@H](CO)c1nc(-c2cc(C(F)(F)F)cc(C(F)(F)F)c2)no1)c1ccc(F)cc1` [Compound 215, N-[(1S)-1-{3-[3,5-bis(trifluoromethyl)phenyl]-1,2,4-oxadiazol-5-yl}-2-hydroxyethyl]-4-fluorobenzamide] as the compound, how does the inhibition at 25 µM read?
**A.** Its inhibition at 25 µM is 40 to 80%.

**Q.** For `OC[C@H](NC(=S)Nc1ccc(Cl)cc1)c1nc(-c2ccc(OC(F)(F)F)cc2)no1` [Compound 97, (S)-1-(4-chloro-phenyl)-3-(2-hydroxy-1-[3-{4-(trifluoromethoxy)phenyl}-1,2,4-oxadiazol-5-yl]ethyl)thiourea], which inhibition at 25 µM is on record?
**A.** The inhibition at 25 µM was 40 to 80%.

**Q.** With `O=C1CC[C@@H](c2nc(-c3ccc(OC(F)(F)F)cc3)no2)N1C(=O)c1ccc(Cl)cc1` [Compound 84, (S)-1-(4-chloro-benzoyl)-5-[3-{4-(trifluoromethoxy)phenyl}-1,2,4-oxadiazol-5-yl]pyrrolidin-2-one] as the compound, how does the inhibition at 25 µM read?
**A.** Its inhibition at 25 µM is 40 to 80%.

**Q.** With `O=C(NCC(CO)c1nc(-c2ccc(C(F)(F)F)cc2)no1)c1ccc(F)cc1` (centres unmarked) [Compound 151, 4-fluoro-N-(3-hydroxy-2-{3-[4-(trifluoro-methyl)phenyl]-1,2,4-oxadiazol-5-yl}propyl)benzamide] as the compound, how does the inhibition at 25 µM read?
**A.** The inhibition at 25 µM was 40 to 80%.

**Q.** With `O=C(c1ccc(Cl)cc1)N1CC(c2nc(-c3ccc(OC(F)(F)F)cc3)no2)C1` [Compound 68, (4-chloro-phenyl)(3-[3-{4-(trifluoro-methoxy)phenyl}-1,2,4-oxadiazol-5-yl]azetidin-1-yl)methanone] as the compound, how does the inhibition at 25 µM read?
**A.** The inhibition at 25 µM was 40 to 80%.

**Q.** With `O=C(c1ccc(Cl)cc1)N1C[C@H](O)C[C@H]1c1nc(-c2ccc(OC(F)(F)F)cc2)no1` [Compound 34, (3R,5S)-1-(4-chlorobenzoyl)-5-{3-[4-(trifluoromethoxy)phenyl]-1,2,4-oxadiazol-5-yl}pyrrolidin-3-ol] as the compound, how does the inhibition at 25 µM read?
**A.** Its inhibition at 25 µM is 40 to 80%.

**Q.** For `O=C(NC(CO)(CO)c1nc(-c2ccc(OC(F)(F)F)cc2)no1)c1ccc(Cl)cc1` [Compound 102, 4-chloro-N-(1,3-dihydroxy-2-{3-[4-(trifluoromethoxy)phenyl]-1,2,4-oxadiazol-5-yl}propan-2-yl)benzamide], which inhibition at 25 µM is on record?
**A.** The inhibition at 25 µM was 40 to 80%.

**Q.** `O=C1CC(c2nc(-c3ccccc3OC(F)(F)F)no2)CN1c1ccc(Cl)cc1` (centres unmarked) [Compound 67, 1-(4-chloro-phenyl)-4-[3-{2-(trifluoro-methoxy)phenyl}-1,2,4-oxadiazol-5-yl]pyrrolidin-2-one] was tested. Which inhibition at 25 µM did it give?
**A.** Its inhibition at 25 µM is 40 to 80%.

**Q.** Which inhibition at 25 µM does the source give for `O=C(N[C@@H](CO)c1nc(-c2cccc(C(F)(F)F)c2)no1)c1ccccc1` [Compound 177, N-[(1S)-2-hydroxy-1-{3-[3-(trifluoromethyl)phenyl]-1,2,4-oxadiazol-5-yl}ethyl] benzamide] here?
**A.** Its inhibition at 25 µM is greater than 80%.

**Q.** For `O=C(N[C@@H](CO)c1nc(-c2ccc(F)cc2)no1)c1ccc(F)cc1` [Compound 172, 4-fluoro-N-[(1S)-1-[3-(4-fluorophenyl)-1,2,4-oxadiazol-5-yl]-2-hydroxyethyl] benzamide], which inhibition at 25 µM is on record?
**A.** The inhibition at 25 µM was greater than 80%.

**Q.** Which inhibition at 25 µM does the source give for `O=C(N[C@@H](CO)c1nc(-c2ccc(C(=O)C(F)(F)F)cc2)no1)c1ccccc1` [Compound 165, N-[(1S)-2-hydroxy-1-{3-[4-(2,2,2-trifluoroacetyl)phenyl]-1,2,4-oxadiazol-5-yl}ethyl] benzamide] here?
**A.** The inhibition at 25 µM was greater than 80%.

**Q.** `O=C(N[C@@H](CO)c1nc(-c2cccc(C(F)(F)F)c2)no1)c1c[nH]c2ccccc12` [Compound 243, N-[(1S)-2-hydroxy-1-{3-[3-(trifluoromethyl)phenyl]-1,2,4-oxadiazol-5-yl}ethyl]-1H-indole-3-carboxamide] was tested. Which inhibition at 25 µM did it give?
**A.** Its inhibition at 25 µM is less than 40%.

**Q.** Which inhibition at 25 µM does the source give for `O=C(N[C@@H](CO)c1nc(-c2ccc(F)cc2Cl)no1)c1ccc(F)cc1` [Compound 219, N-[(1S)-1-[3-(2-chloro-4-fluorophenyl)-1,2,4-oxadiazol-5-yl]-2-hydroxyethyl]-4-fluorobenzamide] here?
**A.** Its inhibition at 25 µM is less than 40%.

**Q.** `CCCN(C(=O)CCc1nc(-c2ccc(OC)cc2)no1)c1cncc(Cl)c1` [Compound 5, N-(5-chloropyridin-3-yl)-3-{3-(4-methoxyphenyl)-1,2,4-oxadiazol-5-yl}-N-propylpropanamide] was tested. Which inhibition at 25 µM did it give?
**A.** Its inhibition at 25 µM is 40 to 80%.

**Q.** For `O=C(N[C@@H](CO)c1nc(-c2ccc(C(F)(F)F)c(F)c2)no1)c1ccc(F)cc1` [Compound 217, 4-fluoro-N-[(1S)-1-{3-[3-fluoro-4-(trifluoromethyl)phenyl]-1,2,4-oxadiazol-5-yl}-2-hydroxyethyl] benzamide], which inhibition at 25 µM is on record?
**A.** The inhibition at 25 µM was 40 to 80%.

**Q.** `CCOCCOc1ccc(C(=O)N[C@@H](CO)c2nc(-c3ccc(C(F)(F)F)cc3)no2)cc1` [Compound 170] was tested. Which inhibition at 25 µM did it give?
**A.** The inhibition at 25 µM was 40 to 80%.

**Q.** How did the inhibition at 25 µM turn out when `N[C@@H](Cc1c[nH]c2ccccc12)c1nc(-c2ccc(OC(F)(F)F)cc2)no1` [Compound 25, (S)-2-(1H-indole-3-yl)-1-[3-(4-trifluoromethoxyphenyl)-1,2,4-oxadiazole-5-yl]ethane-1-amine] was run?
**A.** The inhibition at 25 µM was greater than 80%.

**Q.** With `O=C(NC(CO)c1nc(-c2ccc(OC(F)(F)F)cc2)no1)c1c[nH]c2ccccc12` (centres unmarked) [Compound 46, N-(2-hydroxy-1-[3-{4-(trifluoro-methoxy)phenyl}-1,2,4-oxadiazol-5-yl]ethyl)-1H-indole-3-carboxamide] as the compound, how does the inhibition at 25 µM read?
**A.** The inhibition at 25 µM was 40 to 80%.

**Q.** How did the inhibition at 25 µM turn out when `COc1ccc(-c2noc(CCC(=O)Nc3cccc(Cl)c3)n2)cc1` [Compound 8, N-(3-chlorophenyl)-3-{3-(4-methoxyphenyl)-1,2,4-oxadiazol-5-yl}propanamide] was run?
**A.** Its inhibition at 25 µM is less than 40%.

**Q.** With `O=C(N[C@@H](CO)c1nc(-c2ccc(O)cc2F)no1)c1ccccc1` [Compound 142, N-[(1S)-1-[3-(2-fluoro-4-hydroxyphenyl)-1,2,4-oxadiazol-5-yl]-2-hydroxyethyl]benzamide] as the compound, how does the inhibition at 25 µM read?
**A.** Its inhibition at 25 µM is 40 to 80%.

**Q.** For `O=C1CC(c2nc(-c3ccc(OC(F)(F)F)cc3)no2)CN1c1ccc(Cl)nc1` (centres unmarked) [Compound 48, 1-(6-chloropyridin-3-yl)-4-[3-{4-(trifluoro-methoxy)phenyl}-1,2,4-oxadiazol-5-yl] pyrrolidin-2-one], which inhibition at 25 µM is on record?
**A.** Its inhibition at 25 µM is 40 to 80%.

**Q.** Which inhibition at 25 µM does the source give for `O=C(N[C@@H](CO)c1nc(-c2cccc(C(F)(F)F)c2)no1)c1ccc(F)cc1` [Compound 176, 4-fluoro-N-[(1S)-2-hydroxy-1-{3-[3-(trifluoromethyl)phenyl]-1,2,4-oxadiazol-5-yl}ethyl] benzamide] here?
**A.** The inhibition at 25 µM was greater than 80%.

Same assay, conditions: read-out: Inhibitory activity ABC evaluation

**Q.** With `CCN(C)C(=O)Oc1ccc(-c2noc([C@H](CO)NC(=O)c3ccccc3)n2)cc1` [Compound 159] as the compound, how does the inhibition at 25 µM read?
**A.** Its inhibition at 25 µM is less than 40%.
